Data as given in patent US9421204B2, “Oligomer modified diaromatic substituted compounds” (priority 2010, dated 2016).
Where two headings read alike, the source gives them in different places.

Legend:
[1] = system: CEM-SS cells; test: Toxicity XTT in CEM-SS cells (cytoprotection assay); type: cell-based; details: XTT; read-out: CEM-SS TC50
In short: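 CEM-SS cells in exponential growth (>95% viable) were plated with compound alone, as eleven half-log dilutions in triplicate, at 37 °C and 5% CO2. Viability was measured by XTT/PMS metabolism over 4 h, read at 450/650 nm. Toxicity was derived by four-parameter curve fitting.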

[2] = system: NL4-3L100I; test: Anti-HIV cytoprotection assay, drug resistant NL4-3 L100I; type: cell-based; details: HIV-1 strain NL4-3L100I; for EC50: CEM-SS cells
Procedure: (§1) Cells were prepared as described above. Virus Preparation—The wild type NL4-3 and drug resistant A17 viruses were obtained from the NIH AIDS Research and Reference Reagent Program and stock virus pools were produced in CEM-SS cells. Amino acid substitutes of L100I, Y181C and P23L were introduced by site-directed mutagenesis into pN L4-3 and stock virus pools were produced in CEM-SS cells. A pretitered aliquot of virus was removed from the freezer (−80° C.) and allowed to thaw slowly to room temperature in a biological safety cabinet. Virus was re-suspended and diluted into tissue culture medium such that the amount of virus added to each well in a volume of 50 μL was the amount determined to yield 85 to 95% cell killing at 6 days post-infection.
(§2) Plate Format—Each plate contains cell control wells (cells only), virus control wells (cells plus virus), drug toxicity wells (cells plus drug only), drug colorimetric control wells (drug only) as well as experimental wells (drug plus cells plus virus). Samples were tested in triplicate with eleven half-log dilutions per compound. Efficacy and Toxicity XTT—Following incubation at 37° C. in a 5% CO2 incubator, the test plates were stained with the tetrazolium dye XTT (2,3-bis(2-methoxy-4-nitro-5-sulfophenyl)-5-[(phenylamino)carbonyl]-2H-tetrazolium hydroxide). XTT-tetrazolium was metabolized by the mitochondrial enzymes of metabolically active cells to a soluble formazan product, allowing rapid quantitative analysis of the inhibition of HIV induced cell killing by anti-HIV test substances. XTT solution was prepared daily as a stock of 1 mg/mL in RPMI1640. Phenazine methosulfate (PMS) solution was prepared at 0.15 mg/mL in PBS and stored in the dark at −20° C. XTTIPMS stock was prepared immediately before use by adding 40 μL of PMS per ml of XTT solution. Fifty microliters of XTT/PMS was added to each well of the plate and the plate was re-incubated for 4 hours at 37° C. Plates were sealed with adhesive plate sealers and shaken gently or inverted several times to mix the soluble formazan product and the plate was read spectrophotometrically at 450/650 nm with a Molecular Devices Vmax plate reader.
(§3) Data Analysis—Raw data was collected from the Softmax Pro 4.6 software and imported into a Excel XLFit4 spreadsheet for analysis by four parameter curve fit calculations. Both antiviral activity and toxicity are calculated.

[3] = system: NL4-3Y181C; test: Anti-HIV cytoprotection assay, drug resistant NL4-3 Y181C; type: cell-based; details: HIV-1 strain NL4-3Y181C; for EC50: CEM-SS cells
Procedure: as §1, §2, §3

[4] = system: NL4-3P236L; test: Anti-HIV cytoprotection assay, drug resistant NL4-3 P236L; type: cell-based; details: HIV-1 strain NL4-3P236L; for EC50: CEM-SS cells
Procedure: as §1, §2, §3

[5] = system: A17K103N/Y181C; test: Anti-HIV cytoprotection assay, drug resistant A17; type: cell-based; details: HIV-1 strain A17K103N/Y181C, CEM-SS cells
Procedure: as §1, with “cabinet.” for “cabinet. Virus was re-suspended and diluted into tissue culture medium such that the amount of virus added to each well in a volume of 50 μL was the amount determined to yield 85 to 95% cell killing at 6 days post-infection.”
as §2, §3

[6] = system: CEM-SS cells; test: Toxicity XTT in CEM-SS cells (drug resistant strain assay); type: cell-based; details: read-out: TC50 (the source's name)
Procedure: as §1, §2, §3

[7] = system: Caco-2 monolayers; test: in vitro; type: in vitro ADME; details: for Recovery (%) A→B / Recovery (%) B→A / Average Papp, A→B / Average Papp, B→A: 2 hours; for Average Papp, A→B / Average Papp, B→A: pH 7.4
In short: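 Permeability across Caco-2 monolayers in 12-well Transwell inserts (1.13 cm² area), run in duplicate. Calculation uses receiver and donor volumes, nominal dosing concentration, final receiver and donor concentrations, and the mean of nominal and measured 120 min donor concentrations.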

[8] = Toxicity XTT in CEM-SS cells (drug resistant strain assay); type: cell-based; details: human, CEM-SS cells, read-out: TC50 (the source's name)
Procedure: as §1, §2, §3

[9] = run with HIV-1 strain A17K103N/Y181C
[10] = run with HIV-1 strain NL4-3L100I
[11] = run with HIV-1 strain NL4-3P236L
[12] = run with HIV-1 strain NL4-3Y181C
[13] = Human immunodeficiency virus 1, CEM-SS

Compound | TI [2] | EC50 [2, 13] | EC50 [3, 13] | EC50 [4, 13] | EC50 [5, 13] | CC50 [8, 9] | CC50 ([8]; run with HIV-1 strain NL4-3) | CC50 [8, 10] | CC50 [8, 11] | CC50 [8, 12] | other results
5-O-mPEG9-Delavirdine [mPEG9-O-Delavirdine] | >5.3 | – | – | – | – | – | – | – | – | – | CC50 [1]: 40.7 µM; EC50 ([2]; read-out: EC50): 0.94 µM; EC50 ([3]; read-out: EC50): > 5 µM; EC50 ([4]; read-out: EC50): > 5 µM; EC50 ([5]; read-out: EC50): > 5 µM; CC50 [6, 9]: > 5 µM; CC50 ([6]; run with HIV-1 strain NL4-3): > 5 µM; CC50 [6, 10]: > 5 µM; CC50 [6, 11]: > 5 µM; CC50 [6, 12]: > 5 µM; Efflux Ratio (B→A/A→B) ([7]; Test 1): 12; Recovery (%) A→B ([7]; Test 1, 10 μM): 66%; Recovery (%) B→A ([7]; Test 1, 10 μM): 72%; Average Papp, A→B ([7]; Test 1, 10 μM): 22.2 nm/s; Average Papp, B→A ([7]; Test 1, 10 μM): 277 nm/s; Efflux Ratio (B→A/A→B) ([7]; Test 2): 7.1; Recovery (%) A→B ([7]; Test 2, 10 μM): 93%; Recovery (%) B→A ([7]; Test 2, 10 μM): 94%; Average Papp, A→B ([7]; Test 2, 10 μM): 52.7 nm/s; Average Papp, B→A ([7]; Test 2, 10 μM): 373 nm/s
COCCNc1ccc2[nH]c(C(=O)N3CCN(c4ncccc4NC(C)C)CC3)cc2c1 [5-mPEG1-NH-Delavirdine, 5-mPEG-NH-Delavirdine] | >1.8 | 0.56 µM | 0.82 µM | > 1 µM | > 1 µM | > 1 µM | > 1 µM | > 1 µM | > 1 µM | > 1 µM | TI [3]: >1.2
COCCOCCNc1ccc2[nH]c(C(=O)N3CCN(c4ncccc4NC(C)C)CC3)cc2c1 [5-mPEG2-NH-Delavirdine] | >1.4 | 0.71 µM | > 1 µM | 0.23 µM | > 1 µM | > 1 µM | > 1 µM | > 1 µM | > 1 µM | > 1 µM | TI [4]: >4.4
COCCOCCOCCOc1ccc2[nH]c(C(=O)N3CCN(c4ncccc4NC(C)C)CC3)cc2c1 [mPEG3-O-Delavirdine, 5-O-mPEG3-Delavirdine] | >167.0 | 0.03 µM | > 5 µM | > 5 µM | > 5 µM | > 5 µM | > 5 µM | > 5 µM | > 5 µM | > 5 µM | –
COCCOCCOCCOCCOc1ccc2[nH]c(C(=O)N3CCN(c4ncccc4NC(C)C)CC3)cc2c1 [mPEG4-O-Delavirdine, 5-O-mPEG4-Delavirdine] | >5.3 | 0.95 µM | > 5 µM | > 5 µM | > 5 µM | > 5 µM | > 5 µM | > 5 µM | > 5 µM | > 5 µM | –
